Test system: highly tumorigenic variant of the M-3 cells
Type: in vivo, mice

Which animals cured (cells charged with peptide using TfpL/DNA complexes) does the source give for “LFEAIEGFI [Leu Phe Glu Ala Ile Glu Gly Phe Ile, viral peptide derived from the influenza virus haemagglutinin, H2-K^d-ligand, used as foreign peptide to charge tumour cells]” here?
The animals cured was 6 out of 8.

And the animals developed tumours (peptide simply mixed with the cells (adjuvant))?
Its animals developed tumours is 7 out of 8.

— patent US20020085997A1, “TUMOUR VACCINE AND PROCESS FOR THE PREPARATION THEREOF” (priority 1995, published 2002)
